Usually IC50 stands for the point on the concentration scale where inhibition reaches its midpoint.

For series [1] the following is noted: rhesus monkey, in vivo.
Series [2] concerns hippocampal neurons. Kind of series: Hippocampal neuron apoptosis induced by high-oxygen (50% oxygen) incubation. The series is classed as cell-based, rat (Wistar strain, fetal). As to conditions: 48 hours; for survival rate of neurons at 3000 nM (FIG. 2): control = neurons in 9% oxygen; for survival rate of hippocampal neurons incubated in 50% oxygen (FIG. 1): 5 μM (bFGF 50 nM), neurons in 9% oxygen as control; for IC50: Rattus norvegicus, Hippocampal neuron, read-out: IC50 (inhibition of hippocampal neural apoptosis); for dose-dependent effect on hippocampal neural apoptosis / neuroprotection (FIG. 2): range of concentrations tested, n=4. How it is done:
Effect of 15R-TIC and Deoxy-TIC on hippocampal neuron apoptosis induced by a high-oxygen incubation was tested.
Isocarbacyclin was a pure sample supplied from Teijin Co., Ltd. 15S-TIC was prepared in accordance with the method disclosed in Example 3 of JP-A 245,498/96 by using 15S-16-m-tolyl-17,18,19,20-tetra-nor-carbacyclin which is also disclosed in Example 2 of the same Publication JP-A 245,498/96. The 15R-TIC was prepared by the same method as disclosed in Example 3 of the Publication JP-A 245,498/96. bFGF was the commercially available one.
Hippocampal region was cut out from the fetal rat brain which was aseptically isolated from a pregnant rat (Wistar strain) of […] and the hippocampal region was dispersed into neurons by shaking culture for 30 minutes in a PBS (Ca- and Mg-free) containing DL-cysteine (0.2 mg/ml), bovine serum albumin (0.2 mg/ml), glucose (5 mg/ml), DNase I (0.01%) and papain (9 units/ml). After that, each neutron was planted at the density of 5×10^5 cells/cm^2 on a 24-well plate (coated with polyethyleneimine) filled with a DME/F-12 medium (containing 5% equine serum and 5% fetal bovine serums and incubated for two days in a 5% carbon dioxide gas incubator (9% oxygen). After that, the culture medium was substituted with an DME/F-12 medium (containing 5 μg/ml of transferrin, 5 μg/ml of insulin and 5 nM progasterone) wherefrom serum was removed. Then each sample to be tested was added to the medium, and after 30 minutes, transfered into 50% oxygen. After incubating in 50% oxygen for 48 hours, the survival rate of the neurons was measured. The neurons in 9% oxygen were also added to each sample and the survival rate was measured.
Which regard to the survival rate, the neurons were immobilized by 4% paraformaldehyde, stained with anti-MAP2 antibody and colored by DAB, and the cells positive to MAP2 were counted from the 200-fold enlarged picture whereupon the survival rate was calculated.

For series [3], the system named is hippocampal CA1 pyramidal neurons. Kind of series: Hippocampal CA1 pyramidal neuron apoptosis induced by transient forebrain ischemia, in vivo. Conditions: continuous infusion into left lateral ventricle for 7 days. On the set-up: species or system mongolian gerbil. How it is done:
Effect of 15R-TIC on hippocampal CA1 pyramidal neurons apoptosis induced by ischemic damage in mongolian gerbils was tested in vivo.
To examine whether 15R-TIC can prevent nouronal death in vivo, using an osmotic mini-pomp, 15R-TIC solution was continuously infused for 7 days (started 2 days before the transient ischemia and ended at 5 days) into the left lateral ventricle of gerbils that had been subjected to a transient forebrain ischemia for 3 minutes. Survival number of CA1 pyramidal neurons was assessed by counting neurons with cell bodies larger than 10 μm in the Nissl-staining sections.

For the molecule `COC(=O)CCCCC1=C[C@H]2C[C@@H](O)[C@H](/C=C/[C@H](O)Cc3cccc(C)c3)[C@H]2C1` [15R-TIC methyl ester], in series [1], the “conversion in the brain (prodrug behaviour)” value was “is converted to 15R-TIC in the brain”. For the same molecule, the “pass through blood-brain-barrier / transfer into brain” value in series [1] (iv) is listed as “efficiently transfererd into the brain”.

For `Cc1cccc(C[C@@H](O)/C=C/[C@@H]2[C@H]3CC(CCCCC(=O)O)=C[C@H]3C[C@H]2O)c1` [15R-TIC, 15R-16-(m-tolyl)-17,18,19,20-tetranorisocarbacyclin], in series [2], the “survival rate of neurons at 3000 nM (FIG. 2)” value is “equivalent to the control”, the “survival rate of hippocampal neurons incubated in 50% oxygen (FIG. 1)” value (shortened to “survival rate … in 50% oxygen (FIG. 1)”) is “an increase in the survival rate of neurons was observed to the same or even better extent as compared with the case of bFGF”, the IC50 is around 0.3 µM and the “dose-dependent effect on hippocampal neural apoptosis / neuroprotection (FIG. 2)” value is listed as “dose-dependent inhibitory effect on neural apoptosis”. In addition, the “loss of CA1 pyramidal neurons induced by forebrain ischemia” value in series [3] is “blocked the loss of CA1 pyramidal neurons induced by forebrain ischemia”. Also, the “number of CA1 pyramidal neurons” value in series [3] (in a 20 μm thick section, n=4, 3 minutes transient forebrain ischemia, ischemia-free control 1061±220, vehicle 142±28) came to 984±299.

As for `Cc1cccc(C[C@H](O)/C=C/[C@@H]2[C@H]3CC(CCCCC(=O)O)=C[C@H]3C[C@H]2O)c1` [15S-TIC, reference compound], in series [2], the “survival rate … in 50% oxygen (FIG. 1)” value is “greatly reduced by apoptosis induced by a high-oxygen condition as same as under the control condition” and the “dose-dependent effect on hippocampal neural apoptosis / neuroprotection (FIG. 2)” value is “did not have any effect on neuroprotection in the range of concentrations tested”.

As to `Cc1cccc(CC/C=C/[C@@H]2[C@H]3CC(CCCCC(=O)O)=C[C@H]3C[C@H]2O)c1` [Deoxy-TIC, 15-Deoxy-16-(m-tolyl)-17,18,19,20-tetranorisocarbacyclin], in series [2], the “survival rate of neurons at 3000 nM (FIG. 2)” value is listed as “equivalent to the control”, the “survival rate … in 50% oxygen (FIG. 1)” value was “an increase in the survival rate of neurons was observed to the same or even better extent as compared with the case of bFGF”, the IC50 is around 0.03 µM and the “dose-dependent effect on hippocampal neural apoptosis / neuroprotection (FIG. 2)” value is listed as “dose-dependent inhibitory effect on neural apoptosis”.

Take `COC(=O)CCCCC1=C[C@H]2C[C@@H](O)[C@H](/C=C/[C@H](O)Cc3cccc([11CH3])c3)[C@H]2C1` [RTA]: the “conversion in the brain (prodrug behaviour)” value in series [1] is “could serve as a prodrug for 15R-TIC”. Besides, in series [1] (iv), the “pass through blood-brain-barrier / transfer into brain” value was “equivalent pass through blood-brain-barrier” and the “retention in the brain” value was “retained in the brain further than RTC”.

Consider `Cc1cccc(C[C@@H](O)/C=C/[C@@H]2[C@H]3CC(CCCCC(=O)O[11CH3])=C[C@H]3C[C@H]2O)c1` [RTC], for which, in series [1] (iv), the “pass through blood-brain-barrier / transfer into brain” value is “equivalent pass through blood-brain-barrier”.

As to `CCCCC[C@H](O)/C=C/[C@@H]1[C@H]2CC(CCCCC(=O)O)=C[C@H]2C[C@H]1O` [isocarbacyclin], in series [2], the “survival rate … in 50% oxygen (FIG. 1)” value is recorded as “greatly reduced by apoptosis induced by a high-oxygen condition as same as under the control condition” and the “dose-dependent effect on hippocampal neural apoptosis / neuroprotection (FIG. 2)” value is given as “did not have any effect on neuroprotection in the range of concentrations tested”.
